Experimental data published in PMC12483202, “Pharmacokinetic profile of oral firocoxib in the koala (Phascolarctos cinereus)” (PLOS One, 2025).

Experiment: Single oral dose (5 mg/kg) pharmacokinetics of firocoxib in koalas, plasma HPLC, non-compartmental analysis;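 note: healthy adult koalas, three per sex, anaesthetised the day before dosing for cephalic vein catheterisation, with serial blood draws and firocoxib in plasma quantified by HPLC using fluorescence detection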
Settings: for AUC(0-t): AUC0-t; for MRT inf: MRT0-inf; for k el: ke; for concentration at 1 h / concentration at 2 h / concentration at 4 h / concentration at 8 h: koala (Phascolarctos cinereus)
[1] = arithmetic mean, female koalas (n = 3), single oral 5 mg/kg
[2] = arithmetic mean, male koalas (n = 3), single oral 5 mg/kg
[3] = arithmetic mean, n = 6 koalas, single oral 5 mg/kg
[4] = both, plasma, po, 5 mg/kg, arithmetic mean, n = 6 koalas, single oral 5 mg/kg
[5] = both, plasma, po, 5 mg/kg, harmonic mean, n = 6 koalas, single oral 5 mg/kg
[6] = both, plasma, po, 5 mg/kg, median (range), n = 6 koalas, single oral 5 mg/kg
[7] = female, plasma, po, 5 mg/kg, Firocoxib plasma concentration, K4 female, single oral 5 mg/kg
[8] = female, plasma, po, 5 mg/kg, Firocoxib plasma concentration, K5 female, single oral 5 mg/kg
[9] = female, plasma, po, 5 mg/kg, Firocoxib plasma concentration, K6 female, single oral 5 mg/kg
[10] = female, koala, plasma, po, 5 mg/kg, Firocoxib plasma concentration, K4 female, single oral 5 mg/kg
[11] = female, koala, plasma, po, 5 mg/kg, Firocoxib plasma concentration, K5 female, single oral 5 mg/kg
[12] = female, koala, plasma, po, 5 mg/kg, Firocoxib plasma concentration, K6 female, single oral 5 mg/kg
[13] = female, plasma, po, 5 mg/kg, K4 female, single oral 5 mg/kg
[14] = female, plasma, po, 5 mg/kg, K5 female, single oral 5 mg/kg
[15] = female, plasma, po, 5 mg/kg, K6 female, single oral 5 mg/kg
[16] = female, plasma, po, 5 mg/kg, arithmetic mean, female koalas (n = 3), single oral 5 mg/kg
[17] = female, plasma, po, 5 mg/kg, harmonic mean, female koalas (n = 3), single oral 5 mg/kg

From the text: Six mature koalas (3 males, 3 females) with median (range) body weights and ages of 9.2 kg, (7.5 to 9.7 kg) and 4.8 years (4.3 to 9.1 years), respectively, were recruited from the Taronga Zoo colony (Mosman, NSW, Australia). These koalas were clinically normal based on regular physical examinations, haematological and biochemical analyte values. During the study, koalas were housed singly and supplied with various Eucalyptus spp. foliage and water ad-libitum. […] No animals were sacrificed; the animals were returned to the colony immediately after firocoxib administration and blood sampling. In order to minimise stress, intravenous catheterisation for sequential blood sampling was performed under general anaesthesia.
The day prior to drug administration and blood collection, the koalas were anaesthetised with alfaxalone (Alfaxan, Jurox, Pty Ltd, Rutherford, NSW, Australia) at 3 mg/kg administered intramuscularly (i.m.) and maintained under anaesthesia on isoflurane in 100% oxygen via a face mask for placement of a 20 gauge, 1 ¼ inch intravenous catheter into the cephalic vein. A short T-connector extension set (Codan, Santa Ana, CA, USA) and cap was attached to the catheter and flushed with saline. The extension tube, cap and catheter were secured with tape and bandage, for serial blood collection. Blood (5 mL) was collected at the time of anaesthesia in a lithium heparin tube to establish a baseline (t = 0 h).
Firocoxib was administered as a single oral dose of 5 mg/kg as crushed tablets made into a paste with Vetafarm Koala Crittacare (Wagga Wagga, NSW) and water.
Samples were centrifuged at 1500 x g for 10 minutes, within 1 h of collection; the plasma was immediately stored at –80 °C and protected from light until drug quantification. […] Clinical observations for the presence of adverse effects in the animals treated included measurement of vital signs, appetite, body weight, faecal consistency and overall behaviour and mobility.
Quantification of firocoxib and visualisation of metabolites in plasma was achieved by HPLC with fluorescence detection modified from a published method [12]. The HPLC system consisted of a Shimadzu LC-20AT solvent delivery unit, DGU-20A degasser, a SIL-20A HT auto injector, an SPD-20A UV detector and RF-10A XL fluorescence detector (Shimadzu, Rydalmere, NSW, Australia) and column oven (CTO-20A). […] Chromatographic separation was performed with a Supelco, Discovery C18, (25 cm x 4.6 mm, 5 µm) column (Merck KGaA, Darmstadt, Germany) with a 1-mm Opti-guard C18 pre-column (Choice Analytical, Thornleigh, NSW, Australia) at ambient temperature. […] Fluorescence detection excitation and emission wavelengths were 280 nm and 375 nm, respectively.
For sample preparation 200 μL of each of the following: plasma samples collected from koalas administered firocoxib, standards prepared for the standard curves and the QC samples; were extracted twice by mixing with 800 μL of ethyl acetate. The extracted organic portion (1.6 mL) was dried under vacuum in a Speed Vac Concentrator (Thermo Scientific, MA, USA) at 35 °C for 1 h, reconstituted with 100 μL of acetonitrile, and finally 10 μL of the reconstituted sample was injected into the HPLC system.
The concentration of each QC sample was repeated three times with the accuracy and precision calculated on each of the triplicates. The mean accuracy ± standard deviation (SD) were calculated using the formula [13]:
Firocoxib plasma concentrations from the initial oral administration underwent non-compartmental analysis. The peak concentration (Cmax) and the time reached (Tmax) were obtained directly from the measured concentrations. The elimination half-life (t1/2) was determined by ln2/ke where ke is the elimination rate constant which is the inverse slope of the elimination or terminal part of the semi-log curve.

For `CC1(C)OC(=O)C(OCC2CC2)=C1c1ccc(S(C)(=O)=O)cc1` [firocoxib], the “AUC 0-t/AUC0-inf” value (K1 male, single oral 5 mg/kg) was 0.72, the “AUMC 0-inf” value (K1 male, single oral 5 mg/kg) was 56998 ng/mL*h^2 and the Cl/F (K1 male, single oral 5 mg/kg) was 19.0 L/h. The “ka (absorption constant)” value (K1 male, single oral 5 mg/kg) was 0.11 h⁻¹, the “AUC 0-t/AUC0-inf” value (K2 male, single oral 5 mg/kg) was 0.99 and the “AUMC 0-inf” value (K2 male, single oral 5 mg/kg) was 11422 ng/mL*h^2. For the same compound, the Cl/F (K2 male, single oral 5 mg/kg) was 30.5 L/h, the “ka (absorption constant)” value (K2 male, single oral 5 mg/kg) was 0.21 h⁻¹ and the “AUC 0-t/AUC0-inf” value (K3 male, single oral 5 mg/kg) was 0.99. For the same compound, the “AUMC 0-inf” value (K3 male, single oral 5 mg/kg) was 13436.9 ng/mL*h^2, the Cl/F (K3 male, single oral 5 mg/kg) was 24.6 L/h and the “ka (absorption constant)” value (K3 male, single oral 5 mg/kg) was 0.17 h⁻¹. The “AUC 0-t/AUC0-inf” value (K4 female, single oral 5 mg/kg) was 0.98, the “AUMC 0-inf” value (K4 female, single oral 5 mg/kg) was 8500.1 ng/mL*h^2 and the Cl/F (K4 female, single oral 5 mg/kg) was 38.5 L/h. The “ka (absorption constant)” value (K4 female, single oral 5 mg/kg) was 0.43 h⁻¹, the “AUC 0-t/AUC0-inf” value (K5 female, single oral 5 mg/kg) was 0.94 and the “AUMC 0-inf” value (K5 female, single oral 5 mg/kg) was 11402.2 ng/mL*h^2. The Cl/F (K5 female, single oral 5 mg/kg) was 49.2 L/h, the “ka (absorption constant)” value (K5 female, single oral 5 mg/kg) was 0.25 h⁻¹ and the “AUC 0-t/AUC0-inf” value (K6 female, single oral 5 mg/kg) was 0.83. For the same compound, the “AUMC 0-inf” value (K6 female, single oral 5 mg/kg) was 14183.2 ng/mL*h^2, the Cl/F (K6 female, single oral 5 mg/kg) was 87.5 L/h and the “ka (absorption constant)” value (K6 female, single oral 5 mg/kg) was 0.25 h⁻¹. The “AUC 0-t/AUC0-inf” value [1] was 0.92, the “AUMC 0-inf” value [1] was 11361.8 ng/mL*h^2 and the Cl/F [1] was 58.4 L/h. For the same compound, the ka [1] was 0.28 h⁻¹, the “AUC 0-t/AUC0-inf” value [2] was 0.90 and the “AUMC 0-inf” value [2] was 27285.7 ng/mL*h^2. The Cl/F [2] was 24.7 L/h, the ka [2] was 0.19 h⁻¹ and the AUMC [3] was 19323.8 ng/mL*h ^ 2. For the same compound, the Cl/F [3] was 41.6 L/h, the ka [3] was 0.24 h⁻¹ and the AUC(0-inf) (both, plasma, po, 5 mg/kg, AUC0-inf, arithmetic mean, n = 6 koalas, single oral 5 mg/kg) was 1480 ng·h/mL. For the same compound, the AUC(0-inf) (both, plasma, po, 5 mg/kg, AUC0-inf, harmonic mean, n = 6 koalas, single oral 5 mg/kg) was 1080 ng·h/mL, the AUC(0-inf) (both, plasma, po, 5 mg/kg, AUC0-inf, median (range), n = 6 koalas, single oral 5 mg/kg) was 1260 ng·h/mL and the AUC(0-t) [4] was 1310 ng·h/mL. For the same compound, the AUC(0-t) [5] was 974 ng·h/mL, the AUC(0-t) [6] was 1240 ng·h/mL and the Cmax [4] was 141 ng/mL. For the same compound, the Cmax [5] was 79.2 ng/mL, the Cmax [6] was 140 ng/mL and the MRT inf [4] was 12 h. The MRT inf [5] was 10.7 h, the MRT inf [6] was 12.2 h and the Tmax [4] was 4.33 h. It also gave a Tmax [5] of 3.69 h, a Tmax [6] of 4 h and a Tmax (both, plasma, po, 5 mg/kg, median value, both sexes, koala (6), PO 5 mg/kg) of 4 h. The Vd/F (both, plasma, po, 5 mg/kg, Vss/F, arithmetic mean, n = 6 koalas, single oral 5 mg/kg) was 674 L, the Vd/F (both, plasma, po, 5 mg/kg, Vss/F, harmonic mean, n = 6 koalas, single oral 5 mg/kg) was 332 L and the Vd/F (both, plasma, po, 5 mg/kg, Vss/F, median (range), n = 6 koalas, single oral 5 mg/kg) was 811 L. For the same compound, the Vd/F (both, plasma, po, 5 mg/kg, Vz/F, arithmetic mean, n = 6 koalas, single oral 5 mg/kg) was 582 L, the Vd/F (both, plasma, po, 5 mg/kg, Vz/F, harmonic mean, n = 6 koalas, single oral 5 mg/kg) was 230 L and the Vd/F (both, plasma, po, 5 mg/kg, Vz/F, median (range), n = 6 koalas, single oral 5 mg/kg) was 240 L. The k el [4] was 3.89e-05 s⁻¹, the k el [5] was 2.78e-05 s⁻¹ and the k el [6] was 4.17e-05 s⁻¹. For the same compound, the half-life (both, plasma, po, 5 mg/kg, t1/2, arithmetic mean, n = 6 koalas, single oral 5 mg/kg) was 7 h, the half-life (both, plasma, po, 5 mg/kg, t1/2, harmonic mean, n = 6 koalas, single oral 5 mg/kg) was 5.01 h and the half-life (both, plasma, po, 5 mg/kg, t1/2, median (range), n = 6 koalas, single oral 5 mg/kg) was 5.46 h. It also gave an MRT inf (female, in vivo, po, 5 mg/kg, K6 female, single oral 5 mg/kg) of 26.4 h, a concentration at 1 h [7] of 8.27 ng/mL and a concentration at 2 h [7] of 24.3 ng/mL. It also gave a concentration at 4 h [7] of 89.3 ng/mL, a concentration at 8 h [7] of 74.7 ng/mL and a concentration at 1 h [8] of 28.6 ng/mL. The concentration at 2 h [8] was 61.9 ng/mL, the concentration at 4 h [8] was 51.8 ng/mL and the concentration at 8 h [8] was 45.8 ng/mL. It also gave a concentration at 1 h [9] of 7.89 ng/mL, a concentration at 2 h [9] of 12.3 ng/mL and a concentration at 4 h [9] of 28.9 ng/mL. For the same compound, the concentration at 8 h [9] was 17.5 ng/mL, the concentration at 0.25 h [10] was 0.78 ng/mL and the concentration at 0.5 h [10] was 1.23 ng/mL. The concentration at 12 h [10] was 40.2 ng/mL, the concentration at 24 h [10] was 3.7 ng/mL and the concentration at 0.25 h [11] was 3.74 ng/mL. The concentration at 0.5 h [11] was 5.88 ng/mL, the concentration at 12 h [11] was 23.3 ng/mL and the concentration at 24 h [11] was 12.8 ng/mL. It also gave a concentration at 36 h [11] of 3.83 ng/mL, a concentration at 0.25 h [12] of 3.58 ng/mL and a concentration at 0.5 h [12] of 10.6 ng/mL. For the same compound, the concentration at 12 h [12] was 13.2 ng/mL, the concentration at 24 h [12] was 3.78 ng/mL and the concentration at 36 h [12] was 7.02 ng/mL. The concentration at 48 h (female, koala, plasma, po, 5 mg/kg, Firocoxib plasma concentration, K6 female, 48 h, single oral 5 mg/kg) was 3.83 ng/mL, the AUC(0-inf) (female, plasma, po, 5 mg/kg, AUC0-inf, K4 female, single oral 5 mg/kg) was 973 ng·h/mL and the AUC(0-inf) (female, plasma, po, 5 mg/kg, AUC0-inf, K5 female, single oral 5 mg/kg) was 868 ng·h/mL. The AUC(0-inf) (female, plasma, po, 5 mg/kg, AUC0-inf, K6 female, single oral 5 mg/kg) was 537 ng·h/mL, the AUC(0-inf) (female, plasma, po, 5 mg/kg, AUC 0-inf, arithmetic mean, female koalas (n = 3), single oral 5 mg/kg) was 793 ng·h/mL and the AUC(0-inf) (female, plasma, po, 5 mg/kg, AUC 0-inf, harmonic mean, female koalas (n = 3), single oral 5 mg/kg) was 742 ng·h/mL. For the same compound, the AUC(0-t) [13] was 954 ng·h/mL, the AUC(0-t) [14] was 820 ng·h/mL and the AUC(0-t) [15] was 444 ng·h/mL. For the same compound, the AUC(0-t) [16] was 739 ng·h/mL, the AUC(0-t) [17] was 664 ng·h/mL and the Cmax [13] was 89.3 ng/mL. For the same compound, the Cmax [14] was 61.9 ng/mL, the Cmax [15] was 28.9 ng/mL and the Cmax [16] was 60.3 ng/mL. It also gave a Cmax [17] of 48.4 ng/mL.
